{
  "source": "patent US11214803B2",
  "about": "“Modulators of YAP1 expression” (Ionis Pharmaceuticals, Inc., priority 2019, dated 2022)",
  "format_in_all_cases": "cell-based, human",
  "key": {"[1]": {"system": "Yap1 mRNA", "experiment": "Yap1 mRNA in SNU-1214 cells, RNA analysis (Example 46)", "details": "free uptake, approximately 48 hours", "method": "Modified oligonucleotides described in the studies above were tested at various doses in laryngeal squamous cell carcinoma cell line […]. A control oligonucleotide 792169, described herein above, was also tested.\n(§1) Cultured SNU-1214 cells at a density of 5000 cells per well were treated using free uptake with modified oligonucleotides diluted to concentrations described in the tables below. After approximately 48 hours, Yap1 mRNA levels were measured as previously described using the Human Yap1 primer-probe set RTS4814. Yap1 mRNA levels were normalized to actin-beta content, as measured by primer probe set RTS5002. Results are presented in the tables below as percent control of the amount of Yap1 mRNA relative to untreated control cells (% UTC)."}, "[2]": {"system": "Yap1 mRNA", "experiment": "Yap1 mRNA in UPCI:SCC090 cells, RNA analysis (Example 47)", "details": "free uptake, approximately 48 hours", "method": "Modified oligonucleotides described in the studies above were tested at various doses in tongue squamous cell carcinoma cell line UPCI:SCC090. A control oligonucleotide 792169, described herein above, was also tested.\nas §1, with “UPCI:SCC090” for “SNU-1214”"}, "[3]": {"system": "SCC25 cells", "experiment": "Cell proliferation assay in SCC25 cells, CellTiter-Glo (Example 25)", "details": "free uptake, 144 hours", "method": "Modified oligonucleotides described in the studies above were tested at various doses in squamous cell carcinoma cell SCC25. A control oligonucleotide 792169 (a 3-10-3 cET gapmer with a full phosphorothioate backbone, […], designated herein as SEQ ID No.: 2940; is not complementary to any known human gene) was also tested.\n(§2) Cultured SCC25 cells at a density of 1,000 cells/well were treated using free uptake with modified oligonucleotides diluted to concentrations described in the tables below. After approximately 144 hours, cell proliferation was measured using the luminescent cell viability CellTiter-Glo® 2.0 Assay (Promega). Results are presented in the tables below as percent control of the amount of luminescence in samples treated with modified oligonucleotides relative to untreated control cells (% UTC)."}, "[4]": {"system": "SNU-899 cells", "experiment": "Cell proliferation assay in SNU-899 cells, CellTiter-Glo (Example 43)", "details": "free uptake, approximately 144 hours", "method": "Modified oligonucleotides described in the studies above were tested at various doses in laryngeal squamous cell carcinoma cell line SNU-899. A control oligonucleotide 792169, described herein above, was also tested.\nas §2, with “SNU-899” for “SCC25”, “1000” for “1,000”"}, "[5]": {"system": "Yap1 mRNA", "experiment": "Yap1 mRNA in SCC-9 cells, RNA analysis (Example 40)", "details": "free uptake, approximately 48 hours", "method": "(§3) Modified oligonucleotides described in the studies above were tested at various doses in tongue squamous cell carcinoma cell line SCC-9. A control oligonucleotide 792169, described herein above, was also tested.\nas §1, with “SCC-9” for “SNU-1214”"}, "[6]": {"system": "BICR56 cells", "experiment": "Cell proliferation assay in BICR56 cells, CellTiter-Glo (Example 33)", "details": "free uptake, approximately 144 hours", "method": "Modified oligonucleotides described in the studies above were tested at various doses in squamous cell carcinoma adherent keratinocyte cell line BICR56. A control oligonucleotide 792169 was also tested.\nas §2, with “BICR56” for “SCC25”, “1000” for “1,000”"}, "[7]": {"system": "SCC-9 cells", "experiment": "Cell proliferation assay in SCC-9 cells, CellTiter-Glo (Example 40)", "details": "free uptake, approximately 144 hours", "method": "as §3\nas §2, with “SCC-9” for “SCC25”, “1000” for “1,000”"}, "[8]": {"system": "CAL27 cells", "experiment": "Cell proliferation assay in CAL27 cells, CellTiter-Glo (Example 37)", "details": "free uptake, approximately 144 hours", "method": "Modified oligonucleotides described in the studies above were tested at various doses in tongue squamous cell carcinoma line CAL27. A control oligonucleotide 792169, described herein above, was also tested.\nas §2, with “CAL27” for “SCC25”, “1000” for “1,000”"}},
  "data": [
    {"substance": "1198440 (AAGTGTATGTCAGAAG; cEt, 2'-MOE, 5-methylcytosine, phosphorothioate modifications, further chemistry not given here) [compound 1198440]", "values": [
      {"measurement": "human Yap1 mRNA expression", "setting": "[1]; 0.04 μM", "result": 40, "unit": "% UTC"},
      {"measurement": "human Yap1 mRNA expression", "setting": "[1]; 0.2 μM", "result": 11, "unit": "% UTC"},
      {"measurement": "human Yap1 mRNA expression", "setting": "[1]; 1 μM", "result": 4, "unit": "% UTC"},
      {"measurement": "human Yap1 mRNA expression", "setting": "[1]; 5 μM", "result": 3, "unit": "% UTC"},
      {"measurement": "human Yap1 mRNA expression", "setting": "[2]; 0.04 μM", "result": 60, "unit": "% UTC"},
      {"measurement": "human Yap1 mRNA expression", "setting": "[2]; 0.2 μM", "result": 26, "unit": "% UTC"},
      {"measurement": "human Yap1 mRNA expression", "setting": "[2]; 1 μM", "result": 10, "unit": "% UTC"},
      {"measurement": "human Yap1 mRNA expression", "setting": "[2]; 5 μM", "result": 5, "unit": "% UTC"},
      {"measurement": "cell proliferation (luminescence) % UTC", "setting": "[3]; 0.04 μM", "result": 73, "unit": "% UTC"},
      {"measurement": "cell proliferation (luminescence) % UTC", "setting": "[3]; 0.2 μM", "result": 33, "unit": "% UTC"},
      {"measurement": "cell proliferation (luminescence) % UTC", "setting": "[3]; 1 μM", "result": 22, "unit": "% UTC"},
      {"measurement": "cell proliferation (luminescence) % UTC", "setting": "[3]; 5 μM", "result": 16, "unit": "% UTC"},
      {"measurement": "Antiproliferative effect (cell proliferation, luminescence)", "setting": "[4]; 0.04 μM", "result": 82, "unit": "% UTC"},
      {"measurement": "Antiproliferative effect (cell proliferation, luminescence)", "setting": "[4]; 0.2 μM", "result": 75, "unit": "% UTC"},
      {"measurement": "Antiproliferative effect (cell proliferation, luminescence)", "setting": "[4]; 1 μM", "result": 69, "unit": "% UTC"},
      {"measurement": "Antiproliferative effect (cell proliferation, luminescence)", "setting": "[4]; 5 μM", "result": 66, "unit": "% UTC"},
      {"measurement": "human Yap1 mRNA expression", "setting": "[5]; 0.04 μM", "result": 53, "unit": "% UTC"},
      {"measurement": "human Yap1 mRNA expression", "setting": "[5]; 0.2 μM", "result": 18, "unit": "% UTC"},
      {"measurement": "human Yap1 mRNA expression", "setting": "[5]; 1 μM", "result": 6, "unit": "% UTC"},
      {"measurement": "human Yap1 mRNA expression", "setting": "[5]; 5 μM", "result": 2, "unit": "% UTC"},
      {"measurement": "Antiproliferative effect (cell proliferation, luminescence)", "setting": "[6]; 0.04 μM", "result": 28, "unit": "% UTC"},
      {"measurement": "Antiproliferative effect (cell proliferation, luminescence)", "setting": "[6]; 0.2 μM", "result": 10, "unit": "% UTC"},
      {"measurement": "Antiproliferative effect (cell proliferation, luminescence)", "setting": "[6]; 1 μM", "result": 6, "unit": "% UTC"},
      {"measurement": "Antiproliferative effect (cell proliferation, luminescence)", "setting": "[6]; 5 μM", "result": 4, "unit": "% UTC"},
      {"measurement": "Antiproliferative effect (cell proliferation, luminescence)", "setting": "[7]; 0.04 μM", "result": 88, "unit": "% UTC"},
      {"measurement": "Antiproliferative effect (cell proliferation, luminescence)", "setting": "[7]; 0.2 μM", "result": 46, "unit": "% UTC"},
      {"measurement": "Antiproliferative effect (cell proliferation, luminescence)", "setting": "[7]; 1 μM", "result": 35, "unit": "% UTC"},
      {"measurement": "Antiproliferative effect (cell proliferation, luminescence)", "setting": "[7]; 5 μM", "result": 31, "unit": "% UTC"},
      {"measurement": "Antiproliferative effect (cell proliferation, luminescence)", "setting": "[8]; 0.08 μM", "result": 86, "unit": "% UTC"},
      {"measurement": "Antiproliferative effect (cell proliferation, luminescence)", "setting": "[8]; 0.4 μM", "result": 85, "unit": "% UTC"},
      {"measurement": "Antiproliferative effect (cell proliferation, luminescence)", "setting": "[8]; 2 μM", "result": 83, "unit": "% UTC"},
      {"measurement": "Antiproliferative effect (cell proliferation, luminescence)", "setting": "[8]; 10 μM", "result": 51, "unit": "% UTC"}
    ]}
  ]
}
